Source: patent US5741516A, “Sphingosomes for enhanced drug delivery” (priority 1995, dated 1998)
Read-outs that look alike come from different tables or passages of the source.

What was measured:
[1] = for animals that died after chemotherapy (in words): LD50 dose, within a few days; for Survival (%): 14 days
Excerpt: Female C57BL/6 mice (average weight 15.03 g), were used and housed under standard conditions. The animals received free access to both food and water throughout the experiment after a one week acclimatization period prior to experimental manipulation. The mice were 6 weeks old on the beginning of the experiment and placed randomly in 12 groups of 5 mice per group.

[2] = Bioavailability of liposomal swainsonine; assay type: in vivo, Balb/c mice; settings: p.o. vs i.v.
Protocol: Female Balb/c mice, 5-6 weeks of age, were housed under standard conditions. […] Swainsonine (Toronto Res. Chem.) was radiolabeled with tritium. Tritiated swainsonine was administered as a lipid-based formulation (L-Im) and as an aqueous formulation containing the free drug (F-Im). Tritiated swainsonine was loaded into sphingomyelin/cholesterol (Avanti Polar Labs) sphingosomes using a citrate buffer pH 2 gradient at a drug-to-lipid ratio of 0.2:1 (mol:mol) and with an efficiency of loading of 80%. Two hundred microliters of the lipid and aqueous swainsonine formulations were given orally by gavage (p.o.), intraperitoneally (i.p.), or intravenously (i.v.). Fifty microliter blood samples were collected by retroorbital bleeds at 1, 3, 6, and 24 hours after administration. The blood samples were bleached and then counted in a scintillation counter. Results were expressed as the percentage of the administered dose in the blood at various time-points after administration.

[3] = tested on: bone marrow; test: Bone marrow cellularity after chemotherapy; assay type: in vivo, C57BL/6 mice; settings: 14 days after chemotherapy; orally or i.p., vs GM-CSF i.p. 10 days
Protocol: On the 15th day after the initial chemotherapeutic dose, 4 mice from each group of the immunomodulation study (Example 6) were randomly sacrificed and up to 1 ml of blood was obtained by cardiac puncture. Circulating peripheral WBCs were counted, blood smears (for neutrophil counts) were made and plasma samples were collected and tested for cytokine production (IL-1, IL-2, TNF). Blood cytokine levels (TNF, IL-1, and IL-2) were assayed by commercially available assay kits. The spleen, thymus and bone marrow were removed and single cell suspensions were prepared. The cellularity of these lymphoid organs was assessed by trypan blue exclusion test.

[4] = tested on: TNF-α; test: TNF production by mitogen-stimulated splenocytes; assay type: in vivo, C57BL/6 mice; settings: vs chemotherapy-treated and PBS controls, FIG. 10A
Protocol: (§1) Cells from spleen, thymus and bone marrow were tested for their ability to respond to stimulation from different mitogens: ConA (1, 2.5 and 5 μg/ml) (Sigma), phytohemagglutinin (PHA) (1, and 2.5 μg/ml) (Sigma) and LPS (2.5 and 5 μg/ml) (Difco). After 72 hours of stimulation the proliferative response was measured using CellTiter 96 (Promega). Simultaneously, mitogen stimulated splenocytes were set up for cytokine production after ConA (2.5 μg/ml) and lipopolysaccharide (LPS) (2.5 μg/ml) stimulation. The supernatants were collected after 24 hr. and 48 hr. and tested for Tumor Necrosis Factor-α (TNF-α) and Interleukin-2 (IL-2) production using the direct ELISA method. Supernatants from unstimulated cells served as controls. Results are expressed as pg/ml of TNF-α (sensitivity of the assay is <25 pg/ml) or IL-2 (sensitivity of the assay is <3 pg/ml).

[5] = tested on: IL-2; test: IL-2 production by mitogen-stimulated splenocytes; assay type: in vivo, C57BL/6 mice; settings: vs chemotherapy-treated and PBS controls, FIG. 10B
Protocol: as §1

[6] = In vitro oral stability in gastric contents; assay type: physicochemical; settings: simulated gastric contents; hydrochloric acid (pH2) with pepsin; up to 72 hours
Protocol: To establish an advantage for the oral route of administration, swainsonine was incubated in vitro in simulated gastric contents for various periods of time (1, 2, 4, 24, 48 and 72 hrs.) and the "oral stability" of swainsonine was determined. Swainsonine was also incubated in hydrochloric acid (pH2) containing the main gastric digestive enzyme, pepsin.

[7] = tested on: bone marrow; settings: cited from earlier work
[8] = tested on: IL-1, IL-2, TNF, GM-CSF and interferons; settings: cited from earlier work
[9] = tested on: tumor cells; settings: in vitro; cited from earlier work
[10] = tested on: colon cancer and melanoma cancers; settings: combined with interferon, in vivo; cited from earlier work
[11] = Vincristine uptake into liposomes by pH gradient; assay type: physicochemical; settings: drug/lipid 0.1/1 (wt/wt), 10 minutes at 60° C
Protocol: Uptake of vincristine into large unilamellar liposomes was achieved using a pH gradient-dependent procedure described by Mayer et al., Cancer Chemother. Pharmacol. 33:17-24 (1993), incorporated herein by reference. Briefly, a solution of vincristine sulfate (Oncovin®, Eli Lilly, Indianapolis, Ind.) was added to liposomes at a drug/lipid ratio of 0.1/1 (wt/wt) and equilibrated at 60° C. for 5 to 10 minutes. Vincristine uptake in response to a transmembrane pH gradient was initiated by the addition of 0.5M Na2 HPO4 to bring the external pH to 7.2-7.6.

[12] = tested on: A431 tumors; test: Antitumor efficacy against A431 tumors; assay type: in vivo, human A431 xenograft, SCID mice; settings: vincristine 2.0 mg/kg i.v.
Protocol: Tumor loading and antitumor efficacy properties of DSPC/Chol and SM/Chol liposomal formulations of vincristine were determined in mice bearing solid human A431 squamous cell xenograft tumors. These experiments were undertaken to ensure that the positive results observed in the murine ascitic P388 tumor model were representative of other tumor types. SCID mice bearing 100-200 mg solid human A431 tumors were injected i.v. with free vincristine or with liposomes of either DSPC/Chol or SM/Chol containing vincristine. Vincristine encapsulated DSPC/Chol and SM/Chol liposomes were prepared as in Example II. […] As observed in BDF1 mice bearing P388 tumors, the amount of vincristine remaining in the circulation in SM/Chol liposomes at 24 hours after injection was approximately 3-fold greater than for vincristine encapsulated in DSPC/Chol liposomes (FIG. 11A).
The antitumor efficacy of free and liposomal vincristine against A431 was closely correlated with vincristine accumulation at the tumor site (FIG. 12). […] This therapy was further enhanced by a single treatment of vincristine encapsulated in SM/Chol liposomes. […] Of the five mice (total of 10 tumors) treated with SM/Chol liposomal vincristine, 1 animal was terminated early due to tumor ulceration, not due to tumor growth.

[13] = in vivo; cited from earlier work

Compound: COc1cccc2c1C(=O)c1c(O)c3c(c(O)c1C2=O)C[C@@](O)(C(=O)CO)C[C@@H]3O[C@H]1C[C@H](N)[C@H](O)[C@H](C)O1 [DOX, Doxorubicin]
- animals that died after chemotherapy (in words) [1]: half
- Survival (%) ([1]; i.p.): 60%

Compound: CN(Cc1cnc2nc(N)nc(N)c2n1)c1ccc(C(=O)N[C@@H](CCC(=O)O)C(=O)O)cc1 [MTX, methotrexate]
- animals that died after chemotherapy (in words) [1]: Half
- Survival (%) ([1]; i.p.): 40%

Compound: O[C@H]1[C@H]2[C@H](O)CCCN2C[C@H]1O [swainsonine]
- oral bioavailability compared to swainsonine administered intravenously [2]: 60-65%
- bone marrow cellularity [3]: performed as effectively as GM-CSF
- TNF level in stimulated splenocytes [4]: significantly elevated
- IL-2 level in stimulated splenocytes [5]: significantly elevated
- in vitro oral stability [6]: stable under these harsh conditions for up to 72 hours
- Survival (%) ([1]; i.p.): 100%
- Survival (%) ([1]; p.o.): 100%
- survival beyond 2 weeks after chemotherapy (in words) ([1]; swainsonine intravenously or i.p. / GM-CSF i.p., 10 days, after Mtx or Dox): all animals
- survival after cytotoxic treatment (in words) ([1]; swainsonine p.o. 10 days after Mtx or Dox): all but one animal
- bone marrow proliferation [7]: has the capacity to stimulate bone marrow proliferation
- production of multiple cytokines [8]: stimulates the production of multiple cytokines
- B- and T-cell immunity, natural killer T-cell and macrophage-induced destruction of tumor cells [9]: induces B- and T-cell immunity, natural killer T-cell and macrophage-induced destruction of tumor cells in vitro
- direct anti-tumor activity [10]: direct anti-tumor activity against colon cancer and melanoma cancers

Compound: CC[C@]1(O)C[C@H]2CN(CCc3c([nH]c4ccccc34)[C@@](C(=O)OC)(c3cc4c(cc3OC)N(C=O)[C@H]3[C@@](O)(C(=O)OC)[C@H](OC(C)=O)[C@]5(CC)C=CCN6CC[C@]43[C@@H]65)C2)C1 [vincristine]
- trapping efficiency [11]: approximately 95%
- delay in tumor growth / change in tumor size [12]: brief delay in tumor growth
- time to 100% increase in tumor weight [12]: 6 to 8 days
- time to required termination [12]: 10 to 12 days

Compound: sphingomyelin
- circulation lifetime of liposomes [13]: increase in the circulation lifetime of liposomes
